# Laboratory results taken from article PMC8326492, “Novel Mannich bases with strong carbonic anhydrases and acetylcholinesterase inhibition effects: 3-(aminomethyl)-6-{3-[4-(trifluoromethyl)phenyl]acryloyl}-2(3H)-benzoxazolones” (Turkish Journal of Chemistry, 2021).
# Columns and labels:
# AChE = target: T1, AChE (Electrophorus electricus, UniProt O42275); test: biochemical; conditions: electric eel AChE; mean from three different assays
# T1 construct: AChE enzyme, obtained from electric eel; from tissue; host or cells: electric eel
# T1 sequence (O42275 24-633): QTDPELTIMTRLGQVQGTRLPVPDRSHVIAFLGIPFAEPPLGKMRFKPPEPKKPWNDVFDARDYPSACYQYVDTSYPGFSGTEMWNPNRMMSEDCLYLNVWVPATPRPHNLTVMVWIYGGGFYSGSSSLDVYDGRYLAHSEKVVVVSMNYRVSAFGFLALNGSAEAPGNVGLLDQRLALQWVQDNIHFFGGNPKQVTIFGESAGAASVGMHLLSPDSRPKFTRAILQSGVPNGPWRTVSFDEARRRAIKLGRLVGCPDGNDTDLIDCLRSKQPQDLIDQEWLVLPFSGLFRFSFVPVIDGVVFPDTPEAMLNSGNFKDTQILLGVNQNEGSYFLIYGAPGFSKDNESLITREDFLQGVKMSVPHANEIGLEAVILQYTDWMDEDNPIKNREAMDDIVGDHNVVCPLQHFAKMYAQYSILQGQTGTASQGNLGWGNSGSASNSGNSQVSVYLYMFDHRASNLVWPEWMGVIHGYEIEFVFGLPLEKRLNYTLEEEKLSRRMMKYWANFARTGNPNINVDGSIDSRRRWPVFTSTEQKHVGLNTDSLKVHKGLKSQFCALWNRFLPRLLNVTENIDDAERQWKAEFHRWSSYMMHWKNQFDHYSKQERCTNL
# Protocol: Acetylcholinesterase enzyme inhibition assay was performed according to our previous studies. […] The substrates of acetylthiocholine iodide (AChI) and 5,5’-dithiobis(2-nitro-benzoic acid) (DTNB) was used for cholinergic enzymatic reaction. For this purpose, 1 mL of Tris / HCl buffer (1.0 M, pH 8.0) and 10 μL of different concentrations of sample solution were dissolved in deionized water. Then, an aliquot of (50 μL) AChE enzyme was transferred and incubated at room temperature for 10 min. After the incubation period, an aliquot of DTNB (0.5 mM, 50 μL) was added. Then, the enzymatic reaction was started by adding 50 μL of AChI (10 mM).
# hCA I = hCA I (Homo sapiens, UniProt P00915); test: biochemical
# Sequence of hCA I (P00915 whole entry): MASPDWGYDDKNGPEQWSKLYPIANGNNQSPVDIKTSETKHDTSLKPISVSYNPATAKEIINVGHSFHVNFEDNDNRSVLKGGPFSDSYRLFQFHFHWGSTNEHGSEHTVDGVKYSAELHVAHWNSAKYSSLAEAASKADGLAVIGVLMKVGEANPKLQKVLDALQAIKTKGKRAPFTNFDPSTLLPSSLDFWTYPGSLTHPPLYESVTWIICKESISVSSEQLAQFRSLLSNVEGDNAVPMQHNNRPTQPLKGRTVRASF
# Protocol: (§1) CA inhibition assay was recorded according to previous studies [4,10,27,49,60–64]. The hCA I and II isoenzymes were purified from human red blood cells by sepharose-4B-L-tyrosine-sulfanilamide affinity chromatography [65], which was used as an affinity matrix for selective retention of both hCA isoenzymes [27,66]. […] After sepharose-4B-L-tyrosine-sulfanilamide affinity chromatography, the enzyme quantity was spectrophotometrically measured at 280 nm [68]. […] Purity controls of both CA isoenzymes were performed according to the Laemmli procedure as described in previous studies. Both isoenzymes were visualized by two different acrylamide concentrations (10% and 3% acrylamide), containing 0.1% sodium dodecyl sulfate (SDS) [69,70].
# hCA II = hCA II (Homo sapiens, UniProt P00918); test: Carbonic anhydrase inhibition assay (esterase, p-nitrophenylacetate), hCA II
# Protocol: as §1
SMILES,Ki (AChE),Ki (hCA I),Ki (hCA II)
"O=C(C=Cc1ccc(C(F)(F)F)cc1)c1ccc2c(c1)oc(=O)n2CN1CCOCC1 [Compound 1f, 3-(Morpholinomethyl)-6-{3-[4-(trifluoromethyl)phenyl]acryloyl}benzoxazol-2(3H)-one]",35.2 ± 2 nM,20.4 ± 1.7 nM,41 ± 5.5 nM
"CN1CCN(Cn2c(=O)oc3cc(C(=O)C=Cc4ccc(C(F)(F)F)cc4)ccc32)CC1 [Compound 1g, 3-[(4-Methylpiperazin-1-yl)methyl]-6-{3-[4-(trifluoromethyl)phenyl]acryloyl} benzoxazol-2(3H)-one]",48.5 ± 10.2 nM,53 ± 1.8 nM,8.6 ± 1.9 nM
"CCN(CC)Cn1c(=O)oc2cc(C(=O)C=Cc3ccc(C(F)(F)F)cc3)ccc21 [Compound 1b, 3-[(Diethylamino)methyl]-6-{3-[4-(trifluoromethyl)phenyl]acryloyl}benzoxazol-2(3H)-one]",142 ± 22.1 nM,36.8 ± 7.7 nM,37.6 ± 4.3 nM
"CN(C)Cn1c(=O)oc2cc(C(=O)C=Cc3ccc(C(F)(F)F)cc3)ccc21 [Compound 1a, 3-[(Dimethylamino)methyl]-6-{3-[4-(trifluoromethyl)phenyl]acryloyl}benzoxazol-2(3H)-one]",130 ± 17.6 nM,31.4 ± 5.3 nM,23.3 ± 2 nM
"O=C(C=Cc1ccc(C(F)(F)F)cc1)c1ccc2c(c1)oc(=O)n2CN1CCCC1 [Compound 1d, 3-(Pyrrolidin-1-ylmethyl)-6-{3-[4-(trifluoromethyl)phenyl]acryloyl}benzoxazol-2(3H)-one]",97.6 ± 14.4 nM,12.3 ± 1.2 nM,19 ± 3 nM
"CCCN(CCC)Cn1c(=O)oc2cc(C(=O)C=Cc3ccc(C(F)(F)F)cc3)ccc21 [Compound 1c, 3-[(Dipropylamino)methyl]-6-{3-[4-(trifluoromethyl)phenyl]acryloyl}benzoxazol-2(3H)-one]",116 ± 32 nM,22.3 ± 2.3 nM,24.6 ± 4.7 nM
"O=C(C=Cc1ccc(C(F)(F)F)cc1)c1ccc2c(c1)oc(=O)n2CN1CCCCC1 [Compound 1e, 3-(Piperidin-1-ylmethyl)-6-(3-(4-(trifluoromethyl)phenyl)acryloyl)benzoxazol-2(3H)-one]",84 ± 19.2 nM,27.6 ± 2.9 nM,18.1 ± 3.5 nM
"O=C(/C=C/c1ccc(C(F)(F)F)cc1)c1ccc2[nH]c(=O)oc2c1 [Compound 1, (E )-6-{3-[4-(trifluoromethyl)phenyl]acryloyl}benzoxazol-2(3H )-one]",159 ± 33.5 nM,154 ± 9.3 nM,33.6 ± 4.5 nM
